Among the data in US11697646B2, “Triazole N-linked carbamoyl cyclohexyl acids as LPA antagonists” (BRISTOL-MYERS SQUIBB COMPANY, priority 2017, dated 2023) are IC50 values, retold here.

Broadly, the IC50 is the concentration that gives 50% inhibition.

The experiment deals with T1, human LPA1 (Homo sapiens, UniProt Q92633).
T1 construct: expressed in transfected cells; host or cells: Chinese hamster ovary (CHO) cells
Briefly: LPA1 functional antagonist assay (calcium flux). The experiment is classed as cell-based. To be noted: human LPA1 functional antagonist assay; read-out: hLPA1 IC50. As to the method:
The effectiveness of compounds of the present invention as LPA1 inhibitors can be determined in an LPA1 functional antagonist assay as follows:
The cells were then equilibrated to room temperature for 30 minutes before the assay. […] IC50 values were determined by fitting data to a 4-parameter logistic equation (GraphPad Prism, San Diego Calif.).
(In general: Calcium flux is commonly read through the fluorescence of an indicator in the cells.)

T1 sequence (Q92633 whole entry): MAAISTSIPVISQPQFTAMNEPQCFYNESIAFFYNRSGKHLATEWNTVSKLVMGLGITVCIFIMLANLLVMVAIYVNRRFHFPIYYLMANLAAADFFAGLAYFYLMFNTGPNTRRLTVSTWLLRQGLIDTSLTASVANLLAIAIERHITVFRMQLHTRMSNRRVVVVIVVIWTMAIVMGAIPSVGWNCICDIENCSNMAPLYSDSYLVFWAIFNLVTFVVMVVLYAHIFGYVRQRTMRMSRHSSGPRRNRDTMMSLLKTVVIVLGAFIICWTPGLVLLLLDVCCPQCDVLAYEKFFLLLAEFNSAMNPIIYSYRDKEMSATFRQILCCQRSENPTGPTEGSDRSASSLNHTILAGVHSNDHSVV

Take `Cc1nc(-c2nnn(C)c2CNC(=O)O[C@H](C)C(C)C)ccc1O[C@H]1CCC[C@H](C(=O)O)C1` [Example 170, (1S,3S)-3-((2-methyl-6-(1-methyl-5-((((((R)-3-methylbutan-2-yl)oxy)carbonyl)amino)methyl)-1H-1,2,3-triazol-4-yl)pyridin-3-yl)oxy)cyclohexane-1-carboxylic acid]: the IC50 was found to be 92 nM. The result for `CCC[C@@H](C)OC(=O)NCc1c(-c2ccc(O[C@H]3CCC[C@H](C(=O)O)C3)c(C)n2)nnn1C` [Example 171, (1S,3S)-3-((2-methyl-6-(1-methyl-5-((((((R)-pentan-2-yl)oxy)carbonyl)amino)methyl)-1H-1,2,3-triazol-4-yl)pyridin-3-yl)oxy)cyclohexane-1-carboxylic acid] reads 76 nM; that for `CC[C@@H](C)OC(=O)NCc1c(-c2ccc(O[C@H]3CCC[C@H](C(=O)O)C3)c(C)n2)nnn1C` [Example 172, (1S,3S)-3-((6-(5-((((R)-sec-butoxycarbonyl)amino)methyl)-1-methyl-1H-1,2,3-triazol-4-yl)-2-methyl-pyridin-3-yl)oxy)cyclohexane-1-carboxylic acid], 152 nM. Regarding `Cc1nc(-c2nnn(C)c2CNC(=O)O[C@@H](C)C(C)C)ccc1O[C@H]1CCC[C@H](C(=O)O)C1` [Example 173, (1S,3S)-3((2-methyl-6-(1-methyl-5-((((((S)-3-methylbutan-2-yl)oxy)carbonyl)amino)methyl)-1H-1,2,3-triazol-4-yl)pyridin-3-yl)oxy)cyclohexane-1-carboxylic acid], the concentration for half-maximal inhibition (IC50) is 167 nM.

On to `Cc1nc(-c2nnn(C)c2CNC(=O)O[C@@H](C)C(F)(F)F)ccc1O[C@H]1CCC[C@H](C(=O)O)C1` [Example 174, (1S,3S)-3-((2-methyl-6-(1-methyl-5-((((((S)-1,1,1-trifluoropropan-2-yl)oxy)carbonyl)amino)methyl)-1H-1,2,3-triazol-4-yl)pyridin-3-yl)oxy)cyclohexane-1-carboxylic acid], for which the IC50 was 101 nM. Turning to `CC[C@H](C)OC(=O)NCc1c(-c2ccc(O[C@H]3CCC[C@H](C(=O)O)C3)c(C)n2)nnn1C` [Example 175, (1S,3S)-3-((6-(5-((((S)-sec-butoxy-carbonyl)amino)methyl)-1-methyl-1H-1,2,3-triazol-4-yl)-2-methyl-pyridin-3-yl)oxy)cyclohexane-1-carboxylic acid], the IC50 came to 95 nM. As for `Cc1nc(-c2nnn(C)c2CNC(=O)O[C@@H](C)C2CC2)ccc1O[C@H]1CCC[C@H](C(=O)O)C1` [Example 176, (1S,3S)-3-((6-(5-(((((S)-1-cyclo-propylethoxy)carbonyl)amino)methyl)-1-methyl-1H-1,2,3-triazol-4-yl)-2-methylpyridin-3-yl)oxy)cyclo-hexane-1-carboxylic acid], the IC50 turned out to be 106 nM.

In the case of `Cc1nc(-c2nnn(C)c2CNC(=O)OC2CCC2)ccc1O[C@H]1CCC[C@H](C(=O)O)C1` [Example 177, (1S,3S)-3-((6-(5-(((cyclobutoxycarbonyl)amino)methyl)-1-methyl-1H-1,2,3-triazol-4-yl)-2-methyl-pyridin-3-yl)oxy)cyclohexane-1-carboxylic acid], the IC50 turned out to be 148 nM. The result for `Cc1nc(-c2nnn(C)c2CNC(=O)OC2CC(F)(F)C2)ccc1O[C@H]1CCC[C@H](C(=O)O)C1` [Example 178, (1S,3S)-3-((6-(5-((((3,3-difluoro-cyclobutoxy)carbonyl)amino)methyl)-1-methyl-1H-1,2,3-triazol-4-yl)-2-methylpyridin-3-yl)oxy)cyclo-hexane-1-carboxylic acid] reads 102 nM; that for `Cc1nc(-c2nnn(C)c2CNC(=O)OCC2CC2C)ccc1O[C@H]1CCC[C@H](C(=O)O)C1` (stereo partly drawn) [Example 179, (1S,3S)-3((2-methyl-6-(1-methyl-5-(((((2-methylcyclopropyl)methoxy)carbonyl)amino)methyl)-1H-1,2,3-triazol-4-yl)pyridin-3-yl)oxy)cyclohexane-1-carboxylic acid], 46 nM.

As for `Cc1nc(-c2nnn(C)c2CNC(=O)OCCC(F)(F)F)ccc1O[C@H]1CCC[C@H](C(=O)O)C1` [Example 181, (1S,3S)-3-((2-methyl-6-(1-methyl-5-((((3,3,3-trifluoropropoxy)carbonyl)amino)methyl)-1H-1,2,3-triazol-4-yl)pyridin-3-yl)oxy)cyclohexane-1-carboxylic acid], the IC50 worked out at 96 nM. Next, `Cc1nc(-c2nnn(C)c2CNC(=O)OCC2CC(F)(F)C2)ccc1O[C@H]1CCC[C@H](C(=O)O)C1` [Example 182, (1S,3S)-3-((6-(5-(((((3,3-difluoro-cyclobutyl)methoxy)carbonyl)amino)methyl)-1-methyl-1H-1,2,3-triazol-4-yl)-2-methylpyridin-3-yl)oxy)cyclohexane-1-carboxylic acid]: 85 nM. Next, `Cc1nc(-c2nnn(C)c2CNC(=O)OCC(C)C2CC2)ccc1O[C@H]1CCC[C@H](C(=O)O)C1` (stereo partly drawn) [Example 184, (1S,3S)-3-((6-(5-((((2-cyclopropylpropoxy)carbonyl)amino)methyl)-1-methyl-1H-1,2,3-triazol-4-yl)-2-methylpyridin-3-yl)oxy)cyclo-hexane-1-carboxylic acid]: 41 nM; `Cc1nc(-c2nnn(C)c2CNC(=O)OCCC2(C)CC2)ccc1O[C@H]1CCC[C@H](C(=O)O)C1` [Example 195, (1S,3S)-3((2-methyl-6-(1-methyl-5-((((2-(1-methylcyclopropyl)ethoxy)carbonyl)amino)methyl)-1H-1,2,3-triazol-4-yl)pyridin-3-yl)oxy)cyclohexane-1-carboxylic acid]: 72 nM. With `Cc1nc(-c2nnn(C)c2CNC(=O)OCC(C)CC(F)F)ccc1O[C@H]1CCC[C@H](C(=O)O)C1` (stereo partly drawn) [Example 196, (1S,3S)-3-((6-(5-((((4,4-difluoro-2-methylbutoxy)carbonyl)amino)methyl)-1-methyl-1H-1,2,3-triazol-4-yl)-2-methylpyridin-3-yl)oxy)cyclo-hexane-1-carboxylic acid], the IC50 stood at 83 nM. The result for `Cc1nc(-c2nnn(C)c2CNC(=O)OCCC(C)C)ccc1O[C@H]1CCC[C@H](C(=O)O)C1` [Example 197, (1S,3S)-3-((6-(5-((((isopentyloxy)carbonyl)amino)methyl)-1-methyl-1H-1,2,3-triazol-4-yl)-2-methyl-pyridin-3-yl)oxy)cyclohexane-1-carboxylic acid] reads 16 nM; that for `Cc1nc(-c2nnn(C)c2CNC(=O)OCC(F)(F)C(F)(F)F)ccc1O[C@H]1CCC[C@H](C(=O)O)C1` [Example 198], 45 nM; that for `CC(=O)CCCOC(=O)NCc1c(-c2ccc(O[C@H]3CCC[C@H](C(=O)O)C3)c(C)n2)nnn1C` [Example 199, (1S,3S)-3((2-methyl-6-(1-methyl-5-(((((4-oxopentyl)oxy)carbonyl)amino)methyl)-1H-1,2,3-triazol-4-yl)pyridin-3-yl)oxy)cyclohexane-1-carboxylic acid], 312 nM.

Take `Cc1nc(-c2nnn(C)c2CNC(=O)OC2CC3(CC3)C2)ccc1O[C@H]1CCC[C@H](C(=O)O)C1` [Example 201, (1S,3S)-3-((2-methyl-6-(1-methyl-5-((((spiro[2.3]hexan-5-yloxy)carbonyl)amino)methyl)-1H-1,2,3-triazol-4-yl)pyridin-3-yl)oxy)cyclohexane-1-carboxylic acid]: the IC50 is 42 nM.
